{"source": "patent US11571401B2", "about": "“Compounds, compositions, kits, and methods for activating immune cells and/or an immune system response” (East Carolina University, priority 2017, dated 2023)", "key": {"[1]": {"system": "immature dendritic cells isolated from the bone marrow of C57BL/6 mice", "assay": "Dendritic cell maturation: drug-treated B16F10 cells co-cultured with immature bone marrow dendritic cells", "assay_type": "cell-based, mouse", "details": "FIG. 9", "procedure": "B16F10 melanoma cells remained untreated (UT) or were treated with lipopolysaccharide (LPS; positive control dendritic cell activator), vehicle (VEH; 0.1% DMSO), 500 uM oxaliplatin (OXA; positive control DAMP inducer), or 5 uM 15dPMJ2 (PMJ). The drug-treated cancer cells were then co-cultured with immature dendritic cells that were isolated from the bone marrow of C57BL/6 mice (mouse strain from which the B16F10 cell line was derived). Cell surface markers for dendritic cell maturation were then detected."}, "B16F10 melanoma cells [2]": {"system": "B16F10 melanoma cells", "assay": "Extracellular ATP release from B16F10 melanoma cells", "assay_type": "cell-based, mouse", "procedure": "B16F10 melanoma cells were treated with 5 uM 15dPMJ2 (PMJ), 5uM oxaliplatin (OX), drug vehicle (VEH, DMSO 0.1%) or cells remained untreated (UT) for 4 hours. After 4 hours of drug treatment, the cell culture media from B16F10 cells was obtained to measured ATP levels.\nB16F10 cells were treated with 15dPMJ2 (PMJ), oxaliplatin (OX), or drug vehicle (VEH) in the presence or absence of the ER stress inhibitor, GSK2656157 (“inhibitor” (I))."}, "B16F10 melanoma cells [3]": {"system": "B16F10 melanoma cells", "assay": "Cell surface calreticulin (CRT) expression by flow cytometry in B16F10 melanoma cells", "assay_type": "cell-based, mouse", "procedure": "DAMPs are proteins that are expressed on the surface of cancer cells (e.g., calreticulin (CRT)) or are released from cancer cells (e.g., ATP and HMGB1) after exposure to DAMP inducing agents. DAMPs signal immune cell mediated cancer death.\nB16F10 melanoma cells were treated with 5 uM 15dPMJ2 (PMJ), 5 uM oxaliplatin (OX), drug vehicle (VEH, DMSO 0.1%) or cells remained untreated (UT) for 2 hours. After 2 hours, cell surface calreticulin (CRT) expression was measured by flow cytometric analysis.\nBrefeldin A is a molecule that inhibits the movement of proteins from the ER to the golgi apparatus (inhibits ER-golgi trafficking). Proteins must move from the ER to golgi in order translocate to the cell surface.\nB 16f10 cells were treated with vehicle (V), brefeldin A (BFA), 15dPMJ2 (PMJ) or brefeldin+15dPMJ2."}, "[4]": {"system": "non-tumorigenic, HaCaT keratinocyte cell line", "assay": "Cell surface CD47 expression by flow cytometry in HaCaT keratinocytes", "assay_type": "cell-based, human", "details": "HaCaT non-tumor keratinocytes vs drug vehicle (0.1% DMSO); FIG. 8", "procedure": "(§1) Tumorigenic, A431, and non-tumorigenic, HaCaT keratinocyte cell lines were treated with 15dPMJ2 or drug vehicle (0.1% DMSO) and the cell surface expression of calreticulin (CRT; “eat me” signal) and CD47 (“don't eat me” signal) was detected by conducting flow cytometric analysis."}, "tumor cells": {"system": "tumor cells", "details": "background statement; see U.S. Pat. No. 9,328,060; cited from earlier work"}, "A431 cells": {"system": "A431 cells", "assay": "Cell surface CD47 expression by flow cytometry in A431 cells", "assay_type": "cell-based, human", "details": "A431 tumor cells vs drug vehicle (0.1% DMSO); FIG. 8", "procedure": "as §1"}, "[5]": {"system": "HT-29 (colon cancer) cells", "assay": "Cell surface CRT expression by flow cytometry in HT-29 cells", "assay_type": "cell-based", "details": "5 μM (FIG. 6), 2 hours", "procedure": "(§2) A431 cells (NMSC) and HT-29 (colon cancer) cells were treated with 15dPMJ2, oxaliplatin (OX), drug vehicle (VEH) or cells were untreated (UT) for 2 hours. Cell surface CRT expression was then detected by flow cytometric analysis."}, "B16F10 melanoma tumors": {"system": "B16F10 melanoma tumors", "assay": "Tumor-infiltrating mature dendritic cells in B16F10 melanoma tumors in mice", "assay_type": "in vivo", "details": "C57BL/6 mice, peri-tumor route, 5 days, 0.5 and 0.25 mg/kg (FIG. 10), compared to cisplatin-, oxaliplatin-treated and untreated animals", "procedure": "To determine if 15dPMJ2 can increase the amount of tumor-attacking immune cells in melanoma tumors, a pilot xenograft study was conducted. B16F10 melanoma cells were injected into the subcutaneous flank region of C57BL/6 mice and tumor growth was allowed until tumors were palpable. Animals were then treated by the peri-tumor route with 15dPMJ2, oxaliplatin (positive control DAMP inducer), cisplatin (negative control DAMP inducer), vehicle (PBS containing 0.1% DMSO) or animals were untreated. After 5 days of drug treatment, animals were euthanized and tumors excised for analysis of infiltrating immune cells (TILs). Tumors were dissociated to create a single cell suspension. The expression of MHC II and CD86 (dendritic cell maturation markers) was analyzed by conducting flow cytometric analysis."}, "A431 cells (NMSC)": {"system": "A431 cells (NMSC)", "assay": "Cell surface CRT expression by flow cytometry in A431 cells", "assay_type": "cell-based, human", "procedure": "as §2, §1"}, "[6]": {"system": "non-tumorigenic, HaCaT keratinocyte cell line", "assay": "Cell surface CRT expression by flow cytometry in HaCaT keratinocytes", "assay_type": "cell-based, human", "details": "HaCaT non-tumor keratinocytes vs drug vehicle (0.1% DMSO); FIG. 7", "procedure": "as §1"}}, "data": [{"smiles": "O=C1[O][Pt]2([NH][C@@H]3CCCC[C@H]3[NH]2)[O]C1=O", "note": "[Oxaliplatin, oxaliplatin, reference compound]", "values": [{"measurement": "dendritic cell maturation (MHC II and CD86)", "setting": "[1]; B16F10 cells treated with 500 uM oxaliplatin (100 times the concentration of 15dPMJ2), then co-cultured with BMDCs, compared with 15dPMJ2", "result": "caused similar levels of dendritic cell maturation"}]}, {"smiles": "Cc1cccc(CC(=O)N2CCc3c2ccc(-c2cn(C)c4ncnc(N)c24)c3F)n1", "note": "[GSK2656157, reference compound]", "values": [{"measurement": "extracellular ATP levels after 15dPMJ2 in presence of the ER stress inhibitor", "setting": "B16F10 melanoma cells [2]; inhibitor + 15dPMJ2 vs 15dPMJ2 alone, FIG. 3", "result": "significantly decreased extracellular ATP levels"}]}, {"smiles": "CCCCC/C=C/C=C1/C(=O)C=CC1C/C=C/CCCC(=O)NCCO", "note": "(centres unmarked) [Formula 15dPMJ2, 15-deoxy Δ^12,14-prostagladin J2-ethanolamide]", "values": [{"measurement": "ATP release (extracellular ATP in cell culture media)", "setting": "B16F10 melanoma cells [2]; 5 uM, 4 hours, FIG. 2", "result": "significantly increased ATP release compared to vehicle and oxaliplatin treated cells"}, {"measurement": "cell surface calreticulin (CRT) expression", "setting": "B16F10 melanoma cells [3]; 5 uM, 2 hours, flow cytometry, FIG. 1", "result": "significantly greater than oxaliplatin"}, {"measurement": "cell surface expression of CD47 (don't eat me signal)", "setting": "[4]", "result": "increase"}, {"measurement": "cell death in tumor cells compared to non-tumor cells", "setting": "tumor cells", "result": "preferentially causes cell death in tumor cells compared to non-tumor cells"}, {"measurement": "cell surface expression of CD47 (don't eat me signal)", "setting": "A431 cells", "result": "decreased"}, {"measurement": "cell surface CRT expression (DAMP expression)", "setting": "[5]", "result": "potent inducer of DAMP expression"}, {"measurement": "quantity of mature dendritic cells (MHC II, CD86) that infiltrated the tumor", "setting": "B16F10 melanoma tumors", "result": "increased the quantity of mature dendritic cells that infiltrated the tumor"}, {"measurement": "expression of MHC II and CD86 (dendritic cell maturation markers)", "setting": "[1]; B16F10 cells treated with 5 uM 15dPMJ2, then co-cultured with BMDCs", "result": "significantly increased the expression of MHC II and CD86"}, {"measurement": "cell surface CRT expression (DAMP expression)", "setting": "A431 cells (NMSC); A431 cells, 5 μM (FIG. 5), 2 hours", "result": "potent inducer of DAMP expression"}, {"measurement": "cell surface expression of calreticulin (CRT; eat me signal)", "setting": "A431 cells (NMSC); A431 tumor cells vs drug vehicle (0.1% DMSO), FIG. 7", "result": "increased"}, {"measurement": "cell surface expression of calreticulin (CRT; eat me signal)", "setting": "[6]", "result": "slight increase"}]}, {"smiles": "C[C@H]1CCC/C=C/[C@@H]2C[C@H](O)C[C@H]2[C@H](O)/C=C/C(=O)O1", "note": "[Brefeldin A, reference compound]", "values": [{"measurement": "15dPMJ2-mediated cell surface CRT expression in presence of brefeldin A", "setting": "B16F10 melanoma cells [3]; brefeldin + 15dPMJ2, FIG. 4", "result": "inhibited 15dPMJ2-mediated cell surface CRT expression"}]}]}
